Legend:
[1] = tested on: HT-29; assay: Antitumor activity against human HT-29 cells xenografted in sc dosed mouse assessed as reduction in tumor volume measured after 10 days relative to control; format: functional; set-up: scale not given: the % may be the effect or the level left; settings: time 10 day
[2] = tested on: HT-29; assay: Antitumor activity against human HT-29 cells xenografted in ip dosed mouse assessed as reduction in tumor volume measured after 21 days relative to control; format: functional; set-up: scale not given: the % may be the effect or the level left; settings: time 21 day
[3] = tested on: HT-29; assay: Antitumor activity against human HT-29 cells expressing Trx-1 xenografted in sc dosed mouse in presence of DFMO by immunohistochemical staining based analysis relative to control; format: functional
[4] = tested on: HT-29; assay: Antitumor activity against human HT-29 cells expressing Trx-1 xenografted in sc dosed mouse assessed as reduction in tumor volume in presence of DFMO by immunohistochemical staining based analysis relative to control; format: functional; set-up: scale not given: the % may be the effect or the level left
[5] = tested on: HT-29; assay: Antitumor activity against human HT-29 cells xenografted in sc dosed Apc/Min mouse assessed as reduction in tumor growth in presence of DFMO relative to control; format: functional
[6] = tested on: A549; assay: Antitumor activity against human A549 cells xenografted in ip dosed mouse assessed as tumor growth inhibition at 200 mg/kg measured after 6 weeks relative to control; format: functional; set-up: scale not given: the % may be the effect or the level left
[7] = tested on: U-118-MG; assay: Antitumor activity against human U-118-MG cells xenografted in sc dosed BALB/c mouse assessed as tumor growth inhibition at 20 mg/kg measured after 29 days relative to control; format: functional; settings: 696 h, time 29 day, read-out: TGI
[8] = tested on: PANC-1; assay: Antitumor activity against human PANC-1 cells xenografted in po dosed BALB/c mouse assessed as tumor growth inhibition measured after 30 days relative to control; format: functional; settings: time 30 day
[9] = tested on: Mus musculus; assay: Inhibition of pancreatitis-accelerated acinar-to-ductal metaplasia in C57Bl/6J mouse harboring Kras G12D mutant at 100 mg/kg ,po administered via gavage measured after 3 weeks in presence of cerulein relative to control; format: toxicity, organism-based; settings: 504 h
[10] = tested on: A-431; assay: Antitumor activity against human A-431 cells xenografted in sc dosed mouse assessed as tumor growth inhibition measured after 15 days in presence of diclofenac relative to control; format: functional; settings: time 15 day

Work on `O=C(CCCO[N+](=O)[O-])Oc1ccccc1C(=O)Oc1ccc(-c2cc(=S)ss2)cc1` yielded an Activity [1] of 85%.
In the case of `CCOP(=O)(OCC)OCc1cccc(OC(=O)c2ccccc2OC(C)=O)c1`, the Activity [2] is reported as greater than 60%.
`CCOP(=O)(OCC)OCCCCOC(=O)CC1=C(C)/C(=C/c2ccc([S+](C)[O-])cc2)c2ccc(F)cc21` (stereo not given) gave an Activity [3] of 50%, an Activity [4] of 83% and a TGI [5] of 90%.
For `CCOP(=O)(OCC)OCCCCNC(=O)C(C)c1ccc(CC(C)C)cc1` (stereo not given), the Activity [6] was greater than 95%.
Work on `CCOP(=O)(OCC)OCC(CNC(=O)C(C)c1ccc(CC(C)C)cc1)OP(=O)(OCC)OCC` (stereo not given) yielded an inhibition in vivo at 20 mg/kg [7] of 77%.
`CCOP(=O)(OCC)OCC(COC(=O)c1ccccc1OC(C)=O)OP(=O)(OCC)OCC` (stereo not given) showed a TGI [8] of 78% and an inhibition at 100 mg/kg [9] of 83%.
Work on `NCCCC(N)(C(=O)O)C(F)F` (stereo not given) [EFLORNITHINE] yielded a TGI [10] of 90%.

— ChEMBL document CHEMBL5226350, “NSAIDs: Old Acquaintance in the Pipeline for Cancer Treatment and Prevention─Structural Modulation, Mechanisms of Action, and Bright Future” (J Med Chem, 2021)
